Experimental findings from US5049550A, “Diadenosine 5', 5'"-p^1, p^4,-tetraphosphate analogs as antithrombotic agents” (Worcester Foundation for Experimental Biology, priority 1988, dated 1991) are described below.

“Also recorded” adds a separate entry of the source. Like-named read-outs stand apart in the source and are kept apart here.

This assay relates to ADP-Induced Platelet Aggregation. The assay is described as follows: ADP-induced platelet aggregation in human platelet-rich plasma. The assay is classed as cell-based. The settings on record: for effect on platelet inhibition at 50 μM: even at 50 μM; for inhibition of platelet aggregation compared with E10: ADP. Here is the method: Human platelet-rich plasma was pre-incubated at 37° C. with the appropriate analogue for 1 minute. Aggregation was then induced by 5 μM ADP. ID50 values (i.e. concentration of analogue at which platelets are inhibited by 50 percent) were obtained from log-dose response plots.
FIG. 5 is a graphic representation of the data.
This Example illustrates that sulfur-containing analogues of AP4 A are as effective as E10 in inhibiting aggregation of platelets. Platelet aggregation was induced by ADP and its inhibition measured as in the previous Example.

Where [1] appears, read: Homo sapiens, Platelet, Table 3, 5 μM ADP, 1 minute pre-incubation at 37° C., read-out: ID50 (concentration of analogue at which platelets are inhibited by 50 percent).
Setting [2] is: Homo sapiens, Platelet, Table 5, sulfur-containing analogues, induced by ADP, read-out: ID50 (the source's name).

Take `Nc1ncnc2c1ncn2[C@@H]1O[C@H](COP(=O)(O)CP(=O)(O)OP(=O)(O)CP(=O)(O)OC[C@H]2O[C@@H](n3cnc4c(N)ncnc43)[C@H](O)[C@@H]2O)[C@@H](O)[C@H]1O` [Analogue E4, Ap(CH2)pp(CH2)pA]: the “effect on platelet inhibition at 50 μM” value is on record as “no effect on platelet inhibition”. The IC50 under setting [1] was greater than 50 µM.

Take `Nc1ncnc2c1ncn2[C@@H]1O[C@H](COP(=O)(O)C(F)P(=O)(O)OP(=O)(O)C(F)P(=O)(O)OC[C@H]2O[C@@H](n3cnc4c(N)ncnc43)[C@H](O)[C@@H]2O)[C@@H](O)[C@H]1O` (stereo partly shown) [Analogue E6, Ap(CHF)pp(CHF)pA]: the IC50 under setting [1] turned out to be 50 µM.

Consider `Nc1ncnc2c1ncn2[C@@H]1O[C@H](COP(=O)(O)C(Cl)(Cl)P(=O)(O)OP(=O)(O)C(Cl)(Cl)P(=O)(O)OC[C@H]2O[C@@H](n3cnc4c(N)ncnc43)[C@H](O)[C@@H]2O)[C@@H](O)[C@H]1O` [Analogue E11, Ap(CCL2)pp(CCl2)pA], for which the IC50 under setting [1] turned out to be 9 µM.

Turning to `Nc1ncnc2c1ncn2[C@@H]1O[C@H](COP(=O)(O)OP(=O)(O)C(F)(F)P(=O)(O)OP(=O)(O)OC[C@H]2O[C@@H](n3cnc4c(N)ncnc43)[C@H](O)[C@@H]2O)[C@@H](O)[C@H]1O` [Analogue E8, App(CF2)ppA], the IC50 under setting [1] is 6 µM.

Regarding `Nc1ncnc2c1ncn2C1OC(COP(=O)(O)CP(=O)(O)OP(=O)(O)CP(=O)(O)OCC2OC(n3cnc4c(N)ncnc43)C(O)C2O)C(O)C1O` (stereo not shown) [Analogue E1, Ap(CH2)pp(CH2)pA], the “effect on platelet inhibition at 50 μM” value is listed as “no effect on platelet inhibition”. For the same compound, where the note is “Table 3, 5 μM ADP, 1 minute pre-incubation at 37° C., read-out: ID50 (concentration of analogue at which platelets are inhibited by 50 percent)”, the IC50 was greater than 50 µM.

In the case of `Nc1ncnc2c1ncn2[C@@H]1O[C@H](COP(O)(=S)OP(=O)(O)OP(=O)(O)OP(O)(=S)OC[C@H]2O[C@@H](n3cnc4c(N)ncnc43)[C@H](O)[C@@H]2O)[C@@H](O)[C@H]1O` (stereo partly shown) [Analogue E15, Aps ppps A], under setting [2], the IC50 is 6 µM. The “inhibition of platelet aggregation compared with E10” value (sulfur-containing analogues) is reported as “an inhibitory effect as great as E10”.

Regarding `Nc1ncnc2c1ncn2[C@@H]1O[C@H](COP(=O)(O)OP(=O)(O)C(F)P(=O)(O)OP(=O)(O)OC[C@H]2O[C@@H](n3cnc4c(N)ncnc43)[C@H](O)[C@@H]2O)[C@@H](O)[C@H]1O` (stereo partly shown) [Analogue E5, App(CHF)ppA], the “inhibition of platelet aggregation (in words)” value (5 μM ADP, FIG. 5 at 12.5 μM) is “particularly effective; also recorded: the next most effective in inhibiting platelet aggregation”. Moreover, under setting [1], the IC50 was determined as 4 µM.

For `Nc1ncnc2c1ncn2[C@@H]1O[C@H](COP(=O)(O)OP(=O)(O)C(Cl)(Cl)P(=O)(O)OP(=O)(O)OC[C@H]2O[C@@H](n3cnc4c(N)ncnc43)[C@H](O)[C@@H]2O)[C@@H](O)[C@H]1O` [Analogue E12, App(CCl2)ppA], under setting [1], the IC50 stood at 10 µM.

As to `Nc1ncnc2c1ncn2[C@@H]1O[C@H](COP(=O)(O)C(F)(F)P(=O)(O)OP(=O)(O)C(F)(F)P(=O)(O)OC[C@H]2O[C@@H](n3cnc4c(N)ncnc43)[C@H](O)[C@@H]2O)[C@@H](O)[C@H]1O` [Analogue E7, Ap(CF2)pp(CF2)pA], the IC50 under setting [1] is 15 µM.

Consider `Nc1ncnc2c1ncn2[C@@H]1O[C@H](COP(=O)(O)C(Cl)P(=O)(O)OP(=O)(O)C(Cl)P(=O)(O)OC[C@H]2O[C@@H](n3cnc4c(N)ncnc43)[C@H](O)[C@@H]2O)[C@@H](O)[C@H]1O` (stereo partly shown) [Analogue E9, Ap(CHCl)pp(CHCl)pA], for which, under setting [1], the IC50 came out at 19 µM.

On to `Nc1ncnc2c1ncn2[C@@H]1O[C@H](COP(O)(=S)OP(=O)(O)C(F)P(=O)(O)OP(O)(=S)OC[C@H]2O[C@@H](n3cnc4c(N)ncnc43)[C@H](O)[C@@H]2O)[C@@H](O)[C@H]1O` (stereo partly shown) [Analogue E13, Aps p(CHF)pps A], for which, under setting [2], the IC50 is 7 µM. The “inhibition of platelet aggregation compared with E10” value (sulfur-containing analogues) is “an inhibitory effect as great as E10”.

For `Nc1ncnc2c1ncn2[C@@H]1O[C@H](COP(O)(=S)OP(=O)(O)C(F)(F)P(=O)(O)OP(O)(=S)OC[C@H]2O[C@@H](n3cnc4c(N)ncnc43)[C@H](O)[C@@H]2O)[C@@H](O)[C@H]1O` (stereo partly shown) [Analogue E14, Aps p(CF2)pps A], under setting [2], the IC50 amounted to 17 µM.

Turning to `Nc1ncnc2c1ncn2[C@@H]1O[C@H](COP(=O)(O)OP(=O)(O)CCP(=O)(O)OP(=O)(O)OC[C@H]2O[C@@H](n3cnc4c(N)ncnc43)[C@H](O)[C@@H]2O)[C@@H](O)[C@H]1O` [Analogue E3, App(CH2)2 ppA], under setting [1], the IC50 amounted to 11 µM.

For the compound `Nc1ncnc2c1ncn2[C@@H]1O[C@H](COP(=O)(O)OP(=O)(O)CP(=O)(O)OP(=O)(O)OC[C@H]2O[C@@H](n3cnc4c(N)ncnc43)[C@H](O)[C@@H]2O)[C@@H](O)[C@H]1O` [Analogue E2, App(CH2)ppA], the IC50 under setting [1] is 22 µM.
